Drawing on patent US20120095012A1, “TOLUIDINE SULFONAMIDES AND THEIR USE” (Elara Pharmaceuticals GmbH, priority 2008, published 2012), this text covers EC50 for 26 molecules.

The test system of one assay is HIF mediated transcription. The assay is described as follows: Inhibition of activation of HIF mediated transcription under hypoxic conditions (CellSensor HRE-bla HCT-116 reporter, DFO-induced). The format is cell-based. The settings on record: Homo sapiens; HRE-bla HCT-116 reporter cells, deferoxamine-induced hypoxia, 24 h. Here is the method:
Inhibition of an activated HIF signaling response under chemically-induced hypoxic conditions due to compound treatment was determined using the CellSensor® […] HCT-116 stably transfected reporter cell line from Invitrogen according to the manufacturer's instructions. HIF is a transcriptional factor composed of the constitutively expressed HIF 1β subunit and one of three HIFα subunits (HIF1α, HIF2α, HIF3α). This assay is responsive towards HIFα activity in general. In one example, HIF-1, when stabilized by hypoxic conditions, upregulates several genes to promote cell survival in low-oxygen conditions. These include glycolysis enzymes, which allow ATP synthesis in an oxygen-independent manner, and vascular endothelial growth factor (VEGF), which promotes angiogenesis. HIF-1 acts by binding to HIF-responsive elements (HREs) in promoters that generally contain the sequence NCGTG.
Cells were maintained as described previously and seeded into 384-well, clear-bottom plates (Corning 3712) at 15000 cells/well in 32 μl assay medium (Opti-MEM [Invitrogen], 0.5% FBS, 100 U/ml penicillin, 100 μg/ml streptomycin, 0.1 mM non-essential amino acids [NEAA], 1 mM sodium pyruvate, 5 mM HEPES [pH 7.3]). Following a 2 h incubation period, compounds (4 μl) were subsequently added to the cells at 10× concentrations in 5% DMSO and incubated under normal conditions for 30 min. To induce hypoxic conditions, 4 μl of a 2 mM deferoxamine (DFO) solution was added to the cells followed by 24 h incubation under standard assay conditions (as described). Control wells included wells containing only medium (no cells) and wells treated with 0.5% DMSO instead of compound.
Prior to the readout, the Substrate Loading Solution was prepared as described in the manufacturer's protocol and 10 μl added to each well. Following a further 2 h incubation period at room temperature and in the dark, fluorescence was measured at two wavelengths (blue channel: ex. 409 nm, em. 460 nm; green channel: ex. 409 nm, em. 530 nm) on a PerkinElmer Envision HTS. For the analysis, the average signal of the cell-free wells at 460 nm and 530 nm was first subtracted from the blue and green channel data, respectively. The blue/green emission ratios were then calculated for each well, dividing the background-corrected blue emission values by the background-corrected green emission values. IC50 values were determined from these ratios using GraphPad Prism (Prism 5, GraphPad software, Inc.).
`Cc1ccc(S(=O)(=O)Nc2cc(-c3ccc(C#N)s3)ccc2C)cn1` [Example 24, N-(5-(5-cyanothiophen-2-yl)-2-methylphenyl)-6-methylpyridine-3-sulfonamide] came in with an EC50 of under 500 nM.
`COc1ccc(S(=O)(=O)Nc2cc(-c3ccc(C#N)c(OC)c3)ccc2C)cn1` [Example 18, N-(4′-cyano-3′-methoxy-4-methylbiphenyl-3-yl)-6-methoxypyridine-3-sulfonamide] showed an EC50 of under 500 nM.
Same read-out and setting: then `Cc1ccc(S(=O)(=O)Nc2cc(-c3ccc(C#N)cc3)ccc2C)s1` [Example 8, N-(4′-cyano-4-methylbiphenyl-3-yl)-5-methylthiophene-2-sulfonamide], with under 500 nM; and `COc1ccc(S(=O)(=O)Nc2cc(-c3csc(C#N)c3)ccc2C)cn1` [Example 7, N-(5-(5-cyanothiophen-3-yl)-2-methylphenyl)-6-methoxypyridine-3-sulfonamide], with under 500 nM; and `Cc1ccc(S(=O)(=O)Nc2cc(-c3ccc(C#N)cc3)ccc2C)cn1` [Example 23, N-(4′-cyano-4-methylbiphenyl-3-yl)-6-methylpyridine-3-sulfonamide], with under 500 nM.

For another assay, the system named is MCF-7 human breast adenocarcinoma cells; HRE-bla HCT116 cell line (colorectal carcinoma). The assay is described as follows: Cell proliferation assay (ATPlite luminescence). The conditions noted are these: ATPlite readout, cell line not given. Type of assay: cell-based. Here is the method: MCF-7 human breast adenocarcinoma cells were obtained from ATCC (LGC Promochem). The CellSensor® HRE-bla HCT116 cell line (colorectal carcinoma) was obtained from Invitrogen.
Cells were grown under humidified 95% air, 5% CO2 at 37° C. in Dulbecco's modified Eagle's medium (DMEM: MCF-7) or McCoy's 5A medium (HRE-bla HCT116) supplemented with 10% fetal bovine serum (FBS), 100 U/ml penicillin and 100 μg/ml streptomycin, 2 mM L-glutamine, and blasticidin at 5 μg/ml as a selection marker (for the HRE-bla HCT116 cell line only).
Cell proliferation experiments were carried out in 96-well tissue culture plates with seeding of 2000 cells/well in 100 μl of the relevant medium. Cells were subsequently incubated under the conditions mentioned for 24 h prior to addition of compounds.
To determine the degree of inhibition of cell proliferation, cells were treated with ATPlite solution according to the manufacturer's instructions (PerkinElmer, ATPlite 1-step Luminescence ATP Detection Assay System) and luciferase readout measured on an Envision HTS multilabel plate reader (PerkinElmer) in luminescence mode according to established protocols. Raw data were imported into an ActivityBase database (IDBS, ID Business Solutions) and EC50 values calculated using the IDBS program ActivityBase XE.
As to “N-(4′-cyano-4-methylbiphenyl-3-yl)-6-(dimethylamino)pyridine-3-sulfonamide [Example 27]”, the EC50 was 500 to 1000 nM.

Still in this assay, the particulars now being: Homo sapiens, ATPlite readout, cell line not given.
Turning to `Cc1ccc(-c2ccc(C#N)s2)cc1NS(=O)(=O)c1c(C)noc1C` [Example 17, N-(5-(5-cyanothiophen-2-yl)-2-methylphenyl)-3,5-dimethylisoxazole-4-sulfonamide], the EC50 lay within 1000 to 10000 nM.
On the same count and under the same terms, then `Cc1ccc(S(=O)(=O)Nc2cc(-c3ccc(C#N)s3)ccc2C)cn1` [Example 24, N-(5-(5-cyanothiophen-2-yl)-2-methylphenyl)-6-methylpyridine-3-sulfonamide], with under 500 nM.
The same measure, in the same setting: as for `Cc1ccc(-c2ccc(C#N)s2)cc1NS(=O)(=O)c1cn(C)c(C)n1` [Example 15, N-(5-(5-cyanothiophen-2-yl)-2-methylphenyl)-1,2-dimethyl-1H-imidazole-4-sulfonamide], the figure is 1000 to 10000 nM; as for `COc1ccc(S(=O)(=O)Nc2cc(-c3ccc(C#N)cc3)ccc2C)cn1` [Example 4, 6-Methoxy-pyridine-3-sulfonic acid (4′-cyano-4-methyl-biphenyl-3-yl)-amide], under 500 nM; as for `Cc1ccc(-c2ccc(C#N)s2)cc1NS(=O)(=O)c1ccc(Cl)nc1` [Example 28, 6-chloro-N-(5-(5-cyanothiophen-2-yl)-2-methylphenyl)pyridine-3-sulfonamide], under 500 nM.
The molecule `Cc1cc(S(=O)(=O)Nc2cc(-c3ccc(C#N)s3)ccc2C)c(C)s1` [Example 13, N-(5-(5-cyanothiophen-2-yl)-2-methylphenyl)-2,5-dimethylthiophene-3-sulfonamide] had an EC50 of 1000 to 10000 nM.
The same measure, in the same setting: as for `Cc1ccc(-c2ccc(C#N)s2)cc1NS(=O)(=O)c1cccnc1` [Example 14, N-(5-(5-cyanothiophen-2-yl)-2-methylphenyl)pyridine-3-sulfonamide], the figure is 1000 to 10000 nM; as for `Cc1ccc(-c2ccc(C#N)s2)cc1NS(=O)(=O)c1ccc(N(C)C)nc1` [Example 29, N-(5-(5-cyanothiophen-2-yl)-2-methylphenyl)-6-(dimethylamino)pyridine-3-sulfonamide], under 500 nM; as for `Cc1ccc(-c2ccc(C#N)s2)cc1NS(=O)(=O)c1ccc(C(F)(F)F)cn1` [Example 16, N-(5-(5-cyanothiophen-2-yl)-2-methylphenyl)-5-(trifluoromethyl)pyridine-2-sulfonamide], 1000 to 10000 nM.
On the same count and under the same terms, as for `Cc1ccc(-c2ccc(C#N)cc2)cc1NS(=O)(=O)c1sccc1C` [Example 20, N-(4′-cyano-4-methylbiphenyl-3-yl)-3-methylthiophene-2-sulfonamide], the figure is 1000 to 10000 nM; as for `COc1ccc(S(=O)(=O)Nc2cc(-c3ccc(C#N)c(OC)c3)ccc2C)cn1` [Example 18, N-(4′-cyano-3′-methoxy-4-methylbiphenyl-3-yl)-6-methoxypyridine-3-sulfonamide], under 500 nM.
Regarding `Cc1ccc(S(=O)(=O)Nc2cc(-c3ccc(C#N)cc3)ccc2C)s1` [Example 8, N-(4′-cyano-4-methylbiphenyl-3-yl)-5-methylthiophene-2-sulfonamide], the EC50 was under 500 nM.
Consider `Cc1ccc(-c2ccc(C#N)s2)cc1NS(=O)(=O)c1ccsc1` [Example 10, N-(5-(5-cyanothiophen-2-yl)-2-methylphenyl)thiophene-3-sulfonamide], for which the EC50 was in the range of 500 to 1000 nM.
Still for that read-out and setting: as for `Cc1ccc(-c2ccc(C#N)s2)cc1NS(=O)(=O)c1ccc(Cl)s1` [Example 11, 5-chloro-N-(5-(5-cyanothiophen-2-yl)-2-methylphenyl)thiophene-2-sulfonamide], the figure is 500 to 1000 nM; as for `Cc1cc(S(=O)(=O)Nc2cc(-c3ccc(C#N)s3)ccc2C)c(C(F)(F)F)o1` [Example 19, N-(5-(5-cyanothiophen-2-yl)-2-methylphenyl)-5-methyl-2-(trifluoromethyl)furan-3-sulfonamide], 1000 to 10000 nM.
`CCc1ccc(S(=O)(=O)Nc2cc(-c3ccc(C#N)cc3)ccc2C)s1` [Example 5, 5-Ethyl-thiophene-2-sulfonic acid (4′-cyano-4-methyl-biphenyl-3-yl)-amide] registered an EC50 of under 500 nM.
In turn, `Cc1cccc(S(=O)(=O)Nc2cc(-c3ccc(C#N)s3)ccc2C)n1` [Example 22, N-(5-(5-cyanothiophen-2-yl)-2-methylphenyl)-6-methylpyridine-2-sulfonamide] yielded an EC50 of 1000 to 10000 nM.
Regarding `Cc1ccc(-c2ccc(C#N)cc2)cc1NS(=O)(=O)c1ccc(Cl)nc1` [Example 26, 6-chloro-N-(4′-cyano-4-methylbiphenyl-3-yl)pyridine-3-sulfonamide], the EC50 is under 500 nM.
In the case of `Cc1ccc(-c2ccc(C#N)s2)cc1NS(=O)(=O)c1cccs1` [Example 9, N-(5-(5-cyanothiophen-2-yl)-2-methylphenyl)thiophene-2-sulfonamide], the EC50 is under 500 nM.
Same read-out and setting: then `Cc1ccc(-c2ccc(C#N)s2)cc1NS(=O)(=O)c1cn(C)cn1` [Example 12, N-(5-(5-cyanothiophen-2-yl)-2-methylphenyl)-1-methyl-1H-imidazole-4-sulfonamide], with 1000 to 10000 nM; and `Cc1ccc(-c2ccc(C#N)s2)cc1NS(=O)(=O)c1ccco1` [Example 6, Furan-2-sulfonic acid [5-(5-cyano-thiophen-2-yl)-2-methyl-phenyl]-amide], with 1000 to 10000 nM; and `Cc1ccc(S(=O)(=O)Nc2cc(-c3ccc(C#N)s3)ccc2C)nc1` [Example 25, N-(5-(5-cyanothiophen-2-yl)-2-methylphenyl)-5-methylpyridine-2-sulfonamide], with under 500 nM.
`COc1ccc(S(=O)(=O)Nc2cc(-c3csc(C#N)c3)ccc2C)cn1` [Example 7, N-(5-(5-cyanothiophen-3-yl)-2-methylphenyl)-6-methoxypyridine-3-sulfonamide]: the EC50 was under 500 nM.
Regarding `Cc1ccc(-c2ccc(C#N)cc2)cc1NS(=O)(=O)c1ccc(C#N)nc1` [Example 21, 6-cyano-N-(4′-cyano-4-methylbiphenyl-3-yl)pyridine-3-sulfonamide], the EC50 lay within 1000 to 10000 nM.
Still for that read-out and setting: as for `Cc1ccc(S(=O)(=O)Nc2cc(-c3ccc(C#N)cc3)ccc2C)cn1` [Example 23, N-(4′-cyano-4-methylbiphenyl-3-yl)-6-methylpyridine-3-sulfonamide], the figure is under 500 nM.

What is called EC50 is the concentration at which the effect is half-maximal. Low readings indicate a more potent agent, high ones a less potent agent.
